According to patent US5198439A, “Angiotension II antagonizing pyridine derivatives” (Imperial Chemical Industries PLC, priority 1990, dated 1993):

What was measured:
AII receptors = molecular target: T1, AII receptors (Cavia porcellus, UniProt Q9WV26); test: Test A: displacement of radiolabelled AII binding to guinea pig adrenal gland cell surface membranes; details: read-out: IC50 (concentration for 50% displacement of radiolabelled AII binding)
T1 construct: the source of cell surface membranes is the guinea pig adrenal gland; from tissue; host or cells: guinea pig adrenal gland, cell surface membrane fraction
T1 sequence (Q9WV26 1-359): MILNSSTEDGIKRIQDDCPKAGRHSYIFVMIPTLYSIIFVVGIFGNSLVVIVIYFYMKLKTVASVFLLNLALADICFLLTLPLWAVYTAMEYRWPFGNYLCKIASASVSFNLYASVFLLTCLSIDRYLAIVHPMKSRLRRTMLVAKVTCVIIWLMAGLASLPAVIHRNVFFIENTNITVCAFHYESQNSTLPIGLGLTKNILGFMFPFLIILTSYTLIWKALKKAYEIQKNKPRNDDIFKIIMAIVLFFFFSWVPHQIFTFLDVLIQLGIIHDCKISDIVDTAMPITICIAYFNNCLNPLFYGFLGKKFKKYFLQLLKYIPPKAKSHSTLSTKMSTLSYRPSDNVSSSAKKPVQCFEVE
Procedure: Test A: This in vitro procedure involves the incubation of the test compound initially at a concentration of 100 micromolar (or less) in a buffered mixture containing fixed concentrations of radiolabelled AII and a cell surface membrane fraction prepared from a suitable angiotensin target tissue. In this test, the source of cell surface membranes is the guinea pig adrenal gland which is well known to respond to AII. Interaction of the radiolabelled AII with its receptors (assessed as radiolabel bound to the particulate membrane fraction following removal of unbound radiolabel by a rapid filtration procedure such as is standard in such studies) is antagonized by compounds which also bind to the membrane receptor sites and the degree of antagonism (observed in the test as displacement of membrane-bound radioactivity) is determined readily by comparing the receptor-bound radioactivity in the presence of the test compound at the specified test concentration with a control value determined in the absence of the test compound. Using this procedure compounds showing at least 50% displacement of radiolabelled AII binding at a concentration of 10^-4 M are retested at lower concentrations to determine their potency. […]

[1] = test system: angiotensin II-induced pressor responses; test: Test C: antagonism of angiotensin II-induced pressor responses in rats; type: in vivo; details: iv, rat, i.v. administration
Procedure: Test C: This in vivo test involves using terminally-anaesthetised or conscious rats in which an arterial catheter has been implanted under anaesthesia for the measurement of changes in blood pressure. The AII antagonistic effects of the test compound following oral or parenteral administration, are assessed against angiotensin II-induced pressor responses. To ensure that the effect is specific, the effect of the test compound on vasopressin-induced pressor responses may also be determined in the same preparation.

COC(=O)c1c(OCc2ccc(-c3ccccc3-c3nnn[nH]3)cc2)cc(C)nc1C.Cl [Example 2, methyl 2,6-dimethyl-4-[(2'-(1H-tetrazol-5-yl)biphenyl-4-yl)methoxy]pyridine-3-carboxylate hydrochloride]
IC50 (AII receptors): 50 nM | ED50 [1]: 0.1 mg/kg
